Experimental data: US5633230A, “Treatment of cytomegalovirus infection” (priority 1994, dated 1997)

How the values were obtained:
[1] = toxicity control mice, immunosuppressed, uninfected
Experimental: The mice were immunosuppressed by intraperitoneal (i.p.) injection with 100 mg/kg/day of cyclophosphamide administered on days -1, +3, +6, +10, +14 and +18 relative to virus inoculation. […] In a second portion of the study, the compound was administered i.p. in a dose of 0.1 mg/kg/day once daily from day -2 through +10. Ganciclovir in a dose of 50 mg/kg/day was injected i.p. once daily for 10 days beginning 24 hr post-virus exposure (days +1→+10). A total of 15 infected mice/dose were used. […] Five toxicity control mice were used at each dose; these mice were treated in parallel with the infected mice, and were weighed on the initial day of treatment and again 24 after the final treatment. […] Normal controls were weighed and held in parallel with the toxicity controls.

[2] = test system: Smith strain of murine CMV; assay: murine CMV infection in cyclophosphamide-immunosuppressed mice; format: in vivo, BALB/c mice
Description: This immunosuppression model mimics the human patient situation, wherein the HCMV-induced disease in immunosuppressed individuals can often be fatal. The particular model used for evaluating potential antiviral activity has been described by Smee et al in J. Infect. Dis., 1991, 164: 958.
The Smith strain of murine CMV, obtained originally from the American Type Culture Collection (Rockville, Md.) was used. A mouse salivary gland preparation was used for the virus pool. An inoculation of 2×10^4 plaque forming units of the virus was used in the antiviral study. Female BALB/c mice weighing 10-12 g were quarantined 24 hr prior to use, and maintained on Wayne Lab Blox and tap water ad libitum the duration of the study.
Ganciclovir (DHPG) was purchased from a commercial source, and cyclophosphamide was purchased from Sigma Chemical Co. (St. Louis, Mo.).
To determine tissue virus titre, homogenates of infected mouse organs were titrated for virus using C127/I cells in 96-well microplates. Each tissue sample was homogenized and titrated separately with 3 micro wells used per dilution; plates were read by microscopic examination for viral-induced cytopathic effect, with 50% end points determined by the Reed-Muench method. Mean viral titers were expressed at 50% cell culture infectious doses (CCID50)/gram of tissue.
For statistical evaluation, increases in mean day to death and reductions in viral titers were assessed using the two-tailed Mann-Whitney U test. Total survivor increases were evaluated by chi square analysis with Yates'.

CMV strain AD-169 [3] = assay: plaque reduction assay, CMV AD-169 in HFF cells; format: cell-based, human CMV; details: Human betaherpesvirus 5, AD169, CMV AD-169, HFF
Experimental: (§1) The following procedures were then used to determine inhibitory effects of AV-9 on the replication of CMV. […] This was accomplished by diluting the stock peptide solution in growth medium (10% fetal bovine serum and 10 μg/ml gentamicin in Dulbecco's MEM (DMEM)) used to overlay the monolayers.
[…] Virus was then allowed to adsorb for 1 hour at 37° C. The virus inoculum was removed and the monolayers were overlayed with DMEM containing 2% FBS, 10 ug/ml gentamicin and a specified concentration of AV-9. Virus was next allowed to replicate for 7 to 10 days until the plaques were judged to be well developed, and then the monolayers were fixed and stained with a solution of 1% crystal violet in 1% formaldehyde,70% ethanol. Finally, plaques (each representing a single viable virion) were counted and checked microscopically.
(§2) In a like manner, plaque reduction assays were also performed against other CMV strains and another CMV host, with comparison against ganciclovir (GCV) and foscarnet (FCV).

CMV strain 759^r D100 = assay: plaque reduction assay, ganciclovir-resistant strain 759^r D100; format: cell-based, human CMV; details: Human betaherpesvirus 5, MRC5
Experimental: (§3) The anti-CMV activity of peptide AV-9 was evaluated against two ganciclovir-resistant and two foscarnet-resistant laboratory strains of human CMV in the continuous, human embryonic lung cell line MRC-5.
(§4) To perform the studies, peptide AV-9 was dissolved as a solid in sterile, deionized water to a final stock concentration of 10 mM. This stock solution was subsequently diluted in cell culture medium to obtain the test concentrations used in the study. Ganciclovir (GCV) was dissolved in sterile, deionized water, and the drug concentration measured spectrophotometrically (7.8mM). Foscarnet (phosphonoformic acid, PFA) was dissolved in sterile, deionized water to a final concentration of 100 mM. Aliquots of the stock solutions were stored at -70° C.
(§5) Drug-resistant human CMV strains 759^r D100, GDG^r K17, PFA^r D100 and PFA^r B300 were obtained from Dr. Donald M. Coen, Harvard Medical School, Boston, Mass. […]
(§6) Anti-CMV activity of peptide AV-9, ganciclovir (GCV) and foscarnet (PFA) was assessed by standard plaque reduction assay using 24-well microtiter plates. […]
(§7) MRC-5 cells (4-5×10^5 per well) were grown for 24 hours at 37° C. in 5% CO2 atmosphere in D-MEM/F-12FBS medium containing varying concentrations of drug. […] Vital plaques were counted under a microscope after removing the culture medium from the wells, staining the cells with 1.1% Crystal Violet solution, and washing twice with tap water. […]

CMV strain GDG^r K17 = assay: plaque reduction assay, ganciclovir-resistant strain GDG^r K17; format: cell-based, human CMV; details: Human betaherpesvirus 5, MRC5
Experimental: as §3, §4, §5, §6, §7

CMV strain AD-169 [4] = assay: CPE assay, CMV AD-169 in HFF cells; format: cell-based; details: Human betaherpesvirus 5, AD169, CMV AD-169, HFF (human foreskin fibroblast), without 24 h drug pretreatment
Description: *CPE assay, all others are plaque reduction assays.

CMV strain PFA^r D100 = assay: plaque reduction assay, foscarnet-resistant strain PFA^r D100; format: cell-based, human CMV; details: Human betaherpesvirus 5, MRC5
Experimental: as §3, §4, §5, §6, §7

CMV strain AD-169 [5] = assay: plaque reduction assay, CMV AD-169 in MRC-5 cells; format: cell-based, human CMV; details: Human betaherpesvirus 5, AD169, MRC5, CMV AD-169, MRC-5 (human embryonic lung), 24 h drug pretreatment
Experimental: as §1
After pretreatment with AV-9, the monolayers were overlaid with 0.1 ml log10 dilutions of virus (CMV strain AD-169) ranging from 10^-1 to 10^-6. Virus was then allowed to adsorb for 1 hour at 37° C. The virus inoculum was removed and the monolayers were overlayed with DMEM containing 2% FBS, 10 ug/ml gentamicin and a specified concentration of AV-9. Virus was next allowed to replicate for 7 to 10 days until the plaques were judged to be well developed, and then the monolayers were fixed and stained with a solution of 1% crystal violet in 1% formaldehyde,70% ethanol. Finally, plaques (each representing a single viable virion) were counted and checked microscopically.
as §2

CMV strain PFA^r B300 = assay: plaque reduction assay, foscarnet-resistant strain PFA^r B300; format: cell-based, human CMV; details: Human betaherpesvirus 5, MRC5
Experimental: as §3, §4, §5, §6, §7

[6] = 50 mg/kg/day i.p. days +1 to +10, 9 days after virus challenge

| Structure (SMILES) | Mean Body Weight Change ([1]; 50 mg/kg/day i.p. days +1 to +10, start of treatment to 24 hr after final treatment) | Surv/Total ([1]; toxicity controls, 50 mg/kg/day i.p., days +1 through +10) | days after initiation of infection until first deaths ([2]; 50 mg/kg/day i.p. days +1 to +10) | Tissue Virus Titer ± S.D., Lung [2, 6] | Tissue Virus Titer ± S.D., Salivary Gland [2, 6] | Tissue Virus Titer ± S.D., Spleen [2, 6] | Surv/Total ([2]; infected mice, 50 mg/kg/day i.p., days +1 through +10) | Mean Day to Death ± S.D. ([2]; infected mice, 50 mg/kg/day i.p., days +1 through +10, P<0.01 vs saline) | IC50 (CMV strain AD-169 [3]) | IC50 (CMV strain 759^r D100) | IC50 (CMV strain GDG^r K17) | IC50 (CMV strain AD-169 [4]) | IC50 (CMV strain PFA^r D100) | IC50 (CMV strain AD-169 [5]) | IC50 (CMV strain PFA^r B300) |
| --- | --- | --- | --- | --- | --- | --- | --- | --- | --- | --- | --- | --- | --- | --- | --- |
| Nc1nc2c(ncn2COC(CO)CO)c(=O)[nH]1 [GCV, 9-[(1,3-dihydroxy-2-propoxy)methyl]guanine, reference compound] | 4.2 g | 5/5 | ≥ 21 days | 0 ± 0.0 log10 CCID50/g | 3.5 ± 0.9 log10 CCID50/g | 0.5 ± 1.2 log10 CCID50/g | 0/10 | 22.9 ± 1.1 days | 2 µM | 30.5 µM | 6.1 µM | 5.8 µM |  |  |  |
| O=C(O)P(=O)(O)O [FCV, phosphonoformic acid] |  |  |  |  |  |  |  |  |  |  |  |  | 234 µM | 96 µM | 385 µM |
